According to article PMC10175918 (Communications Biology, 2023):
Read-outs that look alike come from different tables or passages of the source.

Experiments:
Assay in all cases: TGFα-shedding assay-based GPCR screening with chimeric Gα subunit proteins
Type in all cases: cell-based
348 GPCRs [1] = molecular target: T1, 348 GPCRs (Homo sapiens, UniProt O00222); settings: 10µM, Favipiravir 100μM
T1 construct: expressed in transfected cells; host or cells: HEK293A

348 GPCRs [2] = molecular target: T2, 348 GPCRs (Homo sapiens, UniProt P30559)
T2 construct: expressed in transfected cells; host or cells: HEK293A
T2 sequence (P30559 1-389): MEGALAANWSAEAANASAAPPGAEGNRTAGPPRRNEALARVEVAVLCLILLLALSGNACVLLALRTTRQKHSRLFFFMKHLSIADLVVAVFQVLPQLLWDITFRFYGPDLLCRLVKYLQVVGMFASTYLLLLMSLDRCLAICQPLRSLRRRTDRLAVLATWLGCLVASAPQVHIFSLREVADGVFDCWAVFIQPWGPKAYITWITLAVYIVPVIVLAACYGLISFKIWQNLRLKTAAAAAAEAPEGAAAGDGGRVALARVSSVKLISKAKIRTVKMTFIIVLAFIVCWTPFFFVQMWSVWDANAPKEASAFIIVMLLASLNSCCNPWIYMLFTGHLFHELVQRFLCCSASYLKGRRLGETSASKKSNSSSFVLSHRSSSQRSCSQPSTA

348 GPCRs [3] = molecular target: T3, 348 GPCRs (Homo sapiens, UniProt P30988); settings: 10µM, Favipiravir 100μM
T3 sequence (P30988 25-474): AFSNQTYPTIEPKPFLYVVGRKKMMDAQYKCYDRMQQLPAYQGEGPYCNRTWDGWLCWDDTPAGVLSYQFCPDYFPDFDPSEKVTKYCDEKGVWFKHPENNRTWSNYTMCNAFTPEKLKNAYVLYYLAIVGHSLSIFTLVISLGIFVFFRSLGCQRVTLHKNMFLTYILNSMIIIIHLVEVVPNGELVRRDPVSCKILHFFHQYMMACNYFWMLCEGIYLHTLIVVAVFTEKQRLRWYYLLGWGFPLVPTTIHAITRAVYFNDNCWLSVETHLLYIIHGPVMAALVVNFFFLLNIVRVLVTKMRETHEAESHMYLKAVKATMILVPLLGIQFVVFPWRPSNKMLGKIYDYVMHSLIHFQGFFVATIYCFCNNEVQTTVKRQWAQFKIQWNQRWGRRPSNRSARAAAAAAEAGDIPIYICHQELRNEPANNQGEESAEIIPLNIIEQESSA

348 GPCRs [4] = molecular target: 348 GPCRs (Homo sapiens, UniProt P35346); settings: 10µM, Favipiravir 100μM
Chain of 348 GPCRs (Homo sapiens, UniProt P35346) (P35346 whole entry): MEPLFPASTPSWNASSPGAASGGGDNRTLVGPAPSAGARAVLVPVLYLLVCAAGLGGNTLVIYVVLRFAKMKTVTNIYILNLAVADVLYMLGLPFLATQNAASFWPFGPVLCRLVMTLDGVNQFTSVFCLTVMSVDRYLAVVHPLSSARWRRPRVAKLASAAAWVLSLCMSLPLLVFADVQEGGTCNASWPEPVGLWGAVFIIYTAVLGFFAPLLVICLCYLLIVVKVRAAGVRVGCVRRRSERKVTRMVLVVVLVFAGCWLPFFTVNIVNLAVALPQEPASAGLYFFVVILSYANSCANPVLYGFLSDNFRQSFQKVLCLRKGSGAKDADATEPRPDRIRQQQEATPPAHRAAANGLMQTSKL

348 GPCRs [5] = molecular target: T4, 348 GPCRs (Homo sapiens, UniProt P47211); settings: 10µM, Favipiravir 100μM
T4 sequence (P47211 1-349): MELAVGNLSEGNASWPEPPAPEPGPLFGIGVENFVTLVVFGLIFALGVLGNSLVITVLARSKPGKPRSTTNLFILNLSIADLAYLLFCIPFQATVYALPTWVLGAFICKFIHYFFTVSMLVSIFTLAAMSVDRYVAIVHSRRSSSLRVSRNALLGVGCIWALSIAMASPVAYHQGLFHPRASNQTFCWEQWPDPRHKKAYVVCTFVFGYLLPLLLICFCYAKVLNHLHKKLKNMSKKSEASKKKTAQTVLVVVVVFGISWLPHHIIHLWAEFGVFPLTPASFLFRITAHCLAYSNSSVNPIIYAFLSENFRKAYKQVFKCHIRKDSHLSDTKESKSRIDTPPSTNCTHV

348 GPCRs [6] = molecular target: T5, 348 GPCRs (Homo sapiens, UniProt Q03431); settings: 10µM, Favipiravir 100μM
T5 sequence (Q03431 27-593): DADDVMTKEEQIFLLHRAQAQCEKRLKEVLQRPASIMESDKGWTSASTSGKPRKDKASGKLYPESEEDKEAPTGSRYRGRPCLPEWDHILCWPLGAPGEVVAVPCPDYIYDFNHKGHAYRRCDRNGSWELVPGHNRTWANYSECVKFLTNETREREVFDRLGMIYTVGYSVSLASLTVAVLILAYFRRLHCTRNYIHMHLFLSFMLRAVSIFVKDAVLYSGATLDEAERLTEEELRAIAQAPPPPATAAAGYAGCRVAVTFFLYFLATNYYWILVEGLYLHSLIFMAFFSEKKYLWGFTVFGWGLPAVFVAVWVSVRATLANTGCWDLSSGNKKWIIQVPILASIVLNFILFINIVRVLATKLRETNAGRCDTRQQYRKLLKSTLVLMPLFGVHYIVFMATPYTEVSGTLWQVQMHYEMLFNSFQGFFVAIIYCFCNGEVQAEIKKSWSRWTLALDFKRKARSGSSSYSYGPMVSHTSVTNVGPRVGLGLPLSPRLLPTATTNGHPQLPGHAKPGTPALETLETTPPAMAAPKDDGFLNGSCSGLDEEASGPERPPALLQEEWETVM

348 GPCRs [7] = molecular target: T6, 348 GPCRs (Homo sapiens, UniProt Q96LB1); settings: 10µM, Favipiravir 100μM
T6 construct: expressed in transfected cells; host or cells: HEK293A
T6 sequence (Q96LB1 1-330): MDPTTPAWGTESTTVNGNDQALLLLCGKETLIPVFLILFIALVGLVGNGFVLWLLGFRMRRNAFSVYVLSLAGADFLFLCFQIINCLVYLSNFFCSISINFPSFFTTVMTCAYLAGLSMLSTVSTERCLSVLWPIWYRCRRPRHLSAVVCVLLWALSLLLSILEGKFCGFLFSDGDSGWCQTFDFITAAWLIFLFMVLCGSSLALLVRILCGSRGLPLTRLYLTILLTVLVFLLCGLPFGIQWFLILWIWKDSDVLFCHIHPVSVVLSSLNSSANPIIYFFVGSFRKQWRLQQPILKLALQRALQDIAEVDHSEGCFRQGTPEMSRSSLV

348 GPCRs [8] = molecular target: T7, 348 GPCRs (Homo sapiens, UniProt Q9NZD1); settings: 10µM, Favipiravir 100μM
T7 construct: expressed in transfected cells; host or cells: HEK293A
T7 sequence (Q9NZD1 whole entry): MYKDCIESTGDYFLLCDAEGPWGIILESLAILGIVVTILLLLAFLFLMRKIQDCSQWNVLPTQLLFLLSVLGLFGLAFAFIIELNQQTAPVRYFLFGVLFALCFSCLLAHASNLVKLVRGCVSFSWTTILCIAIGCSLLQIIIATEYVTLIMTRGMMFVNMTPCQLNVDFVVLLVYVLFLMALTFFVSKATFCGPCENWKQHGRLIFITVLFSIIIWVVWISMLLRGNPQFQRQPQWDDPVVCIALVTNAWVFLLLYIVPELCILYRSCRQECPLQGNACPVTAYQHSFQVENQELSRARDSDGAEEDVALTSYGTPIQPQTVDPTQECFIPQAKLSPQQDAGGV

348 GPCRs [9] = molecular target: T8, 348 GPCRs (Homo sapiens, UniProt Q9Y5X5); settings: 10µM, Favipiravir 100μM
T8 construct: expressed in transfected cells; host or cells: HEK293A
T8 sequence (Q9Y5X5 whole entry): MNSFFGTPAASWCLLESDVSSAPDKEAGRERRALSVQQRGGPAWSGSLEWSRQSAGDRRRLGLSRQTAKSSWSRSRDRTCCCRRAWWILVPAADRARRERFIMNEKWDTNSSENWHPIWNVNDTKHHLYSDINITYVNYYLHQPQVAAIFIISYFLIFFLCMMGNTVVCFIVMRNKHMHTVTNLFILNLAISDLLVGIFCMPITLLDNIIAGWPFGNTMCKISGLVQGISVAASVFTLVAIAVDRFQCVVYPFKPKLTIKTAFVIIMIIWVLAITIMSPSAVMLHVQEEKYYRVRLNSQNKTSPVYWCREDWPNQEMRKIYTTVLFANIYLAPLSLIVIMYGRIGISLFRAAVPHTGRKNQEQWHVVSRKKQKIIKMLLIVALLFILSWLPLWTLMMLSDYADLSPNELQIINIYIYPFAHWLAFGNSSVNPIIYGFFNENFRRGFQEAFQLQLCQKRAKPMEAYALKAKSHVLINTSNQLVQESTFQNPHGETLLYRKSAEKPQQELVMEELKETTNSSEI

[10] = GRM8 (glutamate receptor, metabotropic 8), read-out: % GPCR activation compared to TPA
[11] = GPCR OXTR (oxytocin Receptor), read-out: % GPCR activation compared to TPA
[12] = CALCR (calcitonin receptor), read-out: % GPCR activation compared to TPA
[13] = SSTR5 (somatostatin receptor 5), read-out: % GPCR activation compared to TPA
[14] = GALR1 (galanin receptor 1), read-out: % GPCR activation compared to TPA
[15] = PTH1R (parathyroid hormone 1 receptor), read-out: % GPCR activation compared to TPA
[16] = MRGPRX2 (MAS-related GPR, member X2), read-out: % GPCR activation compared to TPA
[17] = GPRC5D (G protein-coupled receptor class C group 5 member D), read-out: % GPCR activation compared to TPA
[18] = NPFF2 (neuropeptide FF receptor 2), read-out: % GPCR activation compared to TPA
[19] = read-out: % GPCR activation compared to TPA, GRM8 (glutamate receptor, metabotropic 8)
[20] = read-out: % GPCR activation compared to TPA, GPCR OXTR (oxytocin Receptor)
[21] = read-out: % GPCR activation compared to TPA, CALCR (calcitonin receptor)
[22] = read-out: % GPCR activation compared to TPA, SSTR5 (somatostatin receptor 5)
[23] = read-out: % GPCR activation compared to TPA, GALR1 (galanin receptor 1)
[24] = read-out: % GPCR activation compared to TPA, PTH1R (parathyroid hormone 1 receptor)
[25] = read-out: % GPCR activation compared to TPA, MRGPRX2 (MAS-related GPR, member X2)
[26] = read-out: % GPCR activation compared to TPA, GPRC5D (G protein-coupled receptor class C group 5 member D)
[27] = read-out: % GPCR activation compared to TPA, NPFF2 (neuropeptide FF receptor 2)

T1 sequence (O00222 34-908): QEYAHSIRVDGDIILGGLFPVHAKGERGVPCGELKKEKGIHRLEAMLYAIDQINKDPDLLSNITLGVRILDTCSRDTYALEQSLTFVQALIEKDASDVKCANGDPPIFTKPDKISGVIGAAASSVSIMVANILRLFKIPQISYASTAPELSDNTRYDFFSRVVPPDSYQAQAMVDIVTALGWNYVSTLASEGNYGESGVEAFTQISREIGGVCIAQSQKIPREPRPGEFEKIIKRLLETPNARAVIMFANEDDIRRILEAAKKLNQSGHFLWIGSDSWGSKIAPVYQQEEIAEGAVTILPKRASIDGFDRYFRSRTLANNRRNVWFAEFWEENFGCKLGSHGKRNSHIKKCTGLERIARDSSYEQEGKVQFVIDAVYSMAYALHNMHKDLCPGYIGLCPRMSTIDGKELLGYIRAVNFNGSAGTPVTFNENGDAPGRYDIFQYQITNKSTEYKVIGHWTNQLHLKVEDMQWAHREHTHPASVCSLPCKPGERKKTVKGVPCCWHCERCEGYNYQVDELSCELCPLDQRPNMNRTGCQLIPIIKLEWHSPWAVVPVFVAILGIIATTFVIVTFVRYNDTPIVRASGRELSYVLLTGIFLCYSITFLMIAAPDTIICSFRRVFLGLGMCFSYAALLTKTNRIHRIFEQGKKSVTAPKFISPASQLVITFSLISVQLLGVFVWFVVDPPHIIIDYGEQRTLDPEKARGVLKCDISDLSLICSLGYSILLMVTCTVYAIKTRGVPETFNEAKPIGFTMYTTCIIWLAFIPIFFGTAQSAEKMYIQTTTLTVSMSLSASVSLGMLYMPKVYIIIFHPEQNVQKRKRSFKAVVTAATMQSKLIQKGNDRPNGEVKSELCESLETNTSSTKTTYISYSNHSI

## N#C[C@@]1(c2ccc3c(N)ncnn23)O[C@H](CO)[C@@H](O)[C@H]1O [GS441524]
348 GPCRs [1]; [10]
  activation at 10 µM: -1.24%
348 GPCRs [2]; [11]
  activation at 10 µM: -1.2%
348 GPCRs [3]; [12]
  activation at 100 µM: -3.54%
348 GPCRs [4]; [13]
  activation at 10 µM: -0.162%
348 GPCRs [5]; [14]
  activation at 100 µM: 0.832%
348 GPCRs [6]; [15]
  activation at 100 µM: -0.479%
348 GPCRs [7]; [16]
  activation at 100 µM: -2.44%
348 GPCRs [8]; [17]
  activation at 10 µM: -1.93%
348 GPCRs [9]; [18]
  activation at 10 µM: -0.904%

## CCC(CC)COC(=O)[C@H](C)N[P@](=O)(OC[C@H]1O[C@@](C#N)(c2ccc3c(N)ncnn23)[C@H](O)[C@@H]1O)Oc1ccccc1 [remdesivir]
348 GPCRs [1]; [19]
  activation at 10 µM: -1.11%
348 GPCRs [2]; [20]
  activation at 10 µM: 0.33%
348 GPCRs [3]; [21]
  activation at 100 µM: 1.27%
348 GPCRs [4]; [22]
  activation at 10 µM: -0.348%
348 GPCRs [5]; [23]
  activation at 100 µM: 6.53%
348 GPCRs [6]; [24]
  activation at 100 µM: 0.414%
348 GPCRs [7]; [25]
  activation at 100 µM: 0.19%
348 GPCRs [8]; [26]
  activation at 10 µM: -0.473%
348 GPCRs [9]; [27]
  activation at 10 µM: -0.846%

## CC(C)OC(=O)[C@H](C)N[P@](=O)(OC[C@H]1O[C@@H](n2ccc(=O)[nH]c2=O)[C@](C)(F)[C@@H]1O)Oc1ccccc1 [sofosbuvir]
348 GPCRs [1]; [19]
  activation at 10 µM: -2.01%
348 GPCRs [2]; [20]
  activation at 10 µM: -3.36%
348 GPCRs [3]; [21]
  activation at 100 µM: -2.01%
348 GPCRs [4]; [22]
  activation at 10 µM: -0.552%
348 GPCRs [5]; [23]
  activation at 100 µM: -0.0144%
348 GPCRs [6]; [24]
  activation at 100 µM: 1.23%
348 GPCRs [7]; [25]
  activation at 100 µM: 0.383%
348 GPCRs [8]; [26]
  activation at 10 µM: 0.492%
348 GPCRs [9]; [27]
  activation at 10 µM: -0.549%

## NC(=O)c1nc(F)cnc1O [favipiravir, 6-fluoro-3-hydroxy-2-pyrazinecarboxamide]
348 GPCRs [1]; [10]
  activation at 10 µM: -1.56%
348 GPCRs [2]; GPCR OXTR (oxytocin Receptor), 100μM, read-out: % GPCR activation compared to TPA
  activation at 100 µM: -0.726%
348 GPCRs [3]; [12]
  activation at 100 µM: -3.06%
348 GPCRs [4]; [13]
  activation at 10 µM: 2.28%
348 GPCRs [5]; [14]
  activation at 100 µM: 7.08%
348 GPCRs [6]; [15]
  activation at 100 µM: -0.775%
348 GPCRs [7]; [16]
  activation at 100 µM: -2.37%
348 GPCRs [8]; [17]
  activation at 10 µM: -2.09%
348 GPCRs [9]; [18]
  activation at 10 µM: -0.818%

## CC(C)C(=O)OC[C@H]1O[C@@H](n2ccc(NO)nc2=O)[C@H](O)[C@@H]1O [molnupiravir]
348 GPCRs [1]; [10]
  activation at 10 µM: -2.47%
348 GPCRs [2]; [11]
  activation at 10 µM: -2.8%
348 GPCRs [3]; [12]
  activation at 100 µM: -0.059%
348 GPCRs [4]; [13]
  activation at 10 µM: -2.28%
348 GPCRs [5]; [14]
  activation at 100 µM: 1.08%
348 GPCRs [6]; [15]
  activation at 100 µM: -0.633%
348 GPCRs [7]; [16]
  activation at 100 µM: -3.06%
348 GPCRs [8]; [17]
  activation at 10 µM: -0.168%
348 GPCRs [9]; [18]
  activation at 10 µM: -0.917%
